Measurements published in US10100307B2, “Use of a reverse-transcriptase inhibitor in the prevention and treatment of degenerative diseases” (Centre National de la Recherche Scientifique, priority 2014, dated 2018).

Assays:
[1] = tested on: Mouse embryonic midbrain neurons; assay: Formation of DSBs (gamma-H2AX foci per neuron) induced by H2O2 oxidative stress in vitro; assay type: cell-based; conditions: Stavudine 10 μM; gamma-H2AX labeling; H2O2 for 1 h; FIG. 2A; ***p<0.001, n=6
Method: (§1) Embryonic midbrain neurons (embryonic day 13.5) are cultured in NBGK medium (Neurobasal® (Life Technologies) supplemented with glutamine (500 μM, SIGMA), glutamic acid (3.3 mg/ml, SIGMA), aspartic acid (3.7 mg/ml, SIGMA), anti-anti and B27® (GIBCO)). A midbrain neuron culture was incubated overnight in the presence of Stavudine (10 μM in 0.9% NaCl). A control culture was treated under the same conditions, with a solution of NaCl (0.9%). The following day, the culture medium was replaced with Neurobasal® medium (Life Technologies) not supplemented with B27® (Life Technologies), containing 5 μM of H2O2 and 10 μM Stavudine/NaCl, for 1 h (FIG. 2). Alternatively, the cells were treated with H2O2 (100 μM) in the presence of B27 for one hour. Stavudine (10 μM) was added twice, 24 hours before and during treatment with H2O2 or lipofection (FIG. 2). The neurons were then fixed with PBS 4% paraformaldehyde (PFA) for 20 min, then treated with glycine (100 mM) in PBS for 10 min. […] The number of gamma-H2AX foci per neuron was counted on several slides, then the mean was taken over more than 30 neurons. […]
Mouse embryonic midbrain neurons (14 days' gestation), treated or untreated with an RT inhibitor (Stavudine), were subjected to an oxidative stress by addition of H2O2. […] The number of DSBs per neuron was evaluated after γ-H2AX labeling.

[2] = tested on: TH+ neurons in the substantia nigra pars compacta; assay: 6-OHDA injection into the substantia nigra (oxidative stress in vivo), stereological count of TH+ neurons; design: species or system mice; conditions: 24 h after injection of 6-OHDA; Stavudine 10 μM injected 30 min before and with 6-OHDA; FIG. 3B; **p<0.01, n=5
Method: For the 6-OHDA (6-hydroxydopamine) injections, anesthetized mice were placed on a stereotactic device and a burr hole was drilled in the cranium, 3.3 mm caudally and 1 mm laterally from the bregma. The needle of the syringe was aligned over the hole and descended 4 mm from the surface of the cranium, and 6-OHDA (2 μl; 0.8 μg/μl Sigma) or control (NaCl 0.9%) was injected into the SNpc for more than 4 min. For the immunohistological analysis, the mice were sacrificed 6 h, 24 h or 7 days after 6-OHDA injection. For the qRT-PCR analyses, tissues from the SNpc 6 h after 6-OHDA injection were obtained by extracting 1 mm samples from 2 mm thick disks of frozen tissue, using a stereotactic apparatus. The tissues were embedded in OCT, frozen in cooled isopentane, then preserved at -80° C. before being sectioned. 20 μm thick sections of the brain at the SNpc were made. […] The labeled brain sections were visualized using a confocal fluorescence microscope (SP5, Leica). […] The microscopy images were analyzed using the VisioScan T4.18 software (ExploraNova, La Rochelle, France) as described previously ([…]. 2003). The cell numbers were quantified stereologically on sections spaced apart regularly covering all of the rostrocaudal extent of the substantia nigra, using the VisioScan stereology tool. […]

[3] = tested on: primary midbrain neurons; assay: Formation of DNA breaks induced by transfection with a plasmid (wt L1) overexpressing LINE-1; assay type: cell-based, mouse; conditions: Stavudine 10 μM added 24 hours before and during lipofection; FIG. 2B; ***p<0.001, n=6
Method: as §1

For `Cc1cn([C@H]2C=C[C@@H](CO)O2)c(=O)[nH]c1=O` [Stavudine, 2′-3′-didehydro-2′-3′-dideoxythymidine], the “reduction of the formation of DSBs induced by H2O2” value [1] was 40%, the “number of TH+ neurons in the substantia nigra pars compacta (cell death after oxidative stress in vivo)” value [2] was “higher” and the “formation of DNA breaks induced by wt L1 plasmid overexpressing LINE-1” value [3] was “suppressed”.
